Experimental data published in patent US20200339544A1 (JOINT STOCK COMPANY "BIOCAD", priority 2017, published 2020).
Read-outs that look alike come from different tables or passages of the source. Marks after values point to notes of the source that are not given here.

Columns and labels:
WT EGFR (Wild-Type EGFR) = target: T1, WT EGFR (Wild-Type EGFR) (Homo sapiens, UniProt P00533); experiment: Inhibition of WT EGFR kinase activity (ADP-Glo); format: biochemical
T1 construct: purchased SignalChem
Procedure: (§1) To assess IC50 values of the compounds disclosed herein, a biochemical assay of inhibition of kinase activity in a non-cellular system and a functional cellular anti-proliferation assay were used.
(§2) To assess inhibition of WT EGFR (Wild-Type EGFR), DM EGFR (DoubleMutantEGFR, L828R/T790M) kinase activity, SignalChem kinase system and ADP-Glo™ Kinase Assay (V9102, Promega) detection kit were used.
(§3) The measurements were carried out in a 25 μL reaction volume using a 96-well plate. […] The solution of 0.5 mg/mL peptide substrate and 50 μM ATP in the same buffer were added; the solution was incubated for 180 minutes at 37° C. To detect the amount of ATP taken up during the kinase reaction, the ADP Glo Detection Kit (V9102, Promega) was used. The luminescence was measured with the Infinite M200Pro plate spectrophotometer (Tecan, Switzerland). IC50 values were calculated using Magellan 7.2 software (Tecan, Switzerland) approximating experimental points by four-parameter logistic model with the optimization by Levenberg-Marquardt (Table 14).

[1] = target: T2, DM EGFR (DoubleMutantEGFR, L828R/T790M) (Homo sapiens, UniProt P00533, L858R/T790M); experiment: Inhibition of DM EGFR kinase activity (ADP-Glo); format: biochemical; conditions: for IC50: inhibition of kinase activity, EGFR DM (L828R/T790M); for SI, IC50(WT)/IC50(DM): selectivity index, kinase EGFR WT vs EGFR DM
T2 construct: purchased SignalChem
Procedure: as §1, §2, §3

[2] = system: A549 (lung adenocarcinoma, WT); experiment: Antiproliferative activity on A549 cells (Alamar Blue); format: cell-based; conditions: Homo sapiens, antiproliferative test
Procedure: (§4) Antiproliferative activity of EGFR inhibitors (Tables 15 and 16) was measured in cell-based bioassay on continuous epithelial cell cultures: A549 (lung adenocarcinoma, ATCC® CRM-CCL-185™—WT), HCC827 (lung adenocarcinoma, ATCC® CRL-2868™—SM (SingleMutantEGFR, exon19delE746-A750)) and H1975 (lung adenocarcinoma, ATCC® CRL-5908™—DM (DoubleMutantEGFR, L828R/T790M)) using cell viability reagent Alamar Blue (ThermoFisher, # DAL1100). Cells were cultured in 10% FBS-supplemented (Gibco, #16140071) RPMI-1640 (PanEco, S330p) for at least 1 passage after thawing, washed with PBS and passaged in 96-well culture plates (3599, Corning) with RPMI-1640 growth medium supplemented with 2% FBS in an amount of 5*10^3 cells/well for A549, 10*10^3 cells/well for HCC827 and 15*10^3 cells/well for H1975 in 100 μL, and incubated at 37° C. in an incubator (Thermo Forma, USA) under 5% of CO2 for 16-18 h for cell attachment.
(§5) The test compounds were dissolved in DMSO in the selected range of concentrations and transferred to RPMI-1640 medium (PanEco, S330p) supplemented with 2% FBS. After adding 50 μl of the prepared dilutions to the cells, the incubation mixture contained the final concentrations of the test substances and no more than 1% DMSO. The plates were Incubated at 37° C. for 72 h. After incubation, 15 μl of Alamar Blue vital dye (ThermoFisher, # DAL1100) was added to each well. The plates were shaken on an orbital shaker (Biosan, Latvia) and further incubated for 3-5 h in a CO2 incubator (Thermo Forma, USA). Number of living cells was estimated using a plate spectrophotometer Infinite M200Pro, (Tecan, Switzerland) measuring fluorescent signal at the excitation wavelength (λEx) of 540 nm and emission wavelength (λEm) of 590 nm.
IC50 was calculated using Magellan 7.2 software (Tecan, Switzerland) approximating experimental points by four-parameter logistic model with the optimization by Levenberg-Marquardt.
(§6) The ratio between IC50 for cell lines containing wild-type EGFR (A549) and IC50 for cell lines containing target mutation L828R/T790M (H1975) is the selectivity index (SI): […]

[3] = Chemical stability in human blood plasma; format: in vitro ADME; conditions: pooled human blood plasma; 10 μm; 4 hours at 37° C.; substance amount remaining
Procedure: 2) Determination of chemical stability in human blood plasma.
Determination of stability in human blood plasma was performed using pooled human blood plasma taken from ten healthy donors. The initial candidate solution (10 mM in DMSO) was diluted with pooled blood plasma to a concentration of 10 μm (test solution). The test solution was incubated in a dry block thermostat for 4 hours at 37° C. HPLC with Agilent 1200 liquid chromatography system (Agilent, USA) was employed to determine peak areas of the compounds in test samples, said peak areas corresponding to the initial test time (prior to incubation) and the final test time (after incubation in a dry block thermostat for 4 hours at 37° C.), proteins were preliminarily precipitated with acetonitrile. We used gradient elution (1 mL/min flow rate). Substance amount in % in a sample after thermostatting was determined.
The stability of the compounds was estimated.

[4] = system: H1975 (lung adenocarcinoma, DM, L828R/T790M); experiment: Antiproliferative activity on H1975 cells (Alamar Blue); format: cell-based; conditions: for IC50: Homo sapiens, NCI-H1975, H1975 cells; for SI IC50(A549)/IC50(DM): selectivity index, A549 vs H1975 cells
Procedure: as §4, §5
IC50 was calculated using Magellan 7.2 software (Tecan, Switzerland) approximating experimental points by four-parameter logistic model with the optimization by Levenberg-Marquardt. […]
as §6

HepG2 cells = experiment: General cytotoxicity on HepG2 cells; format: cell-based; conditions: therapeutic index, CC50 HepG2 / IC50 H1975
Procedure: (§7) The CC50 values were determined in the test for General cytotoxicity on HepG2 cells (rhepatocellular carcinoma, ATCC® HB-8065™) (Table 16). The cells were subcultured in DMEM medium (PanEco, S420p) supplemented with 10% FBS (Gibco, #16140071) for at least 1 passage after thawing, washed with PBS and passaged in 96-well culture plates (3599, Corning) at a concentration of 2*10^4 cells/100 μL per well, and incubated for 16-18 h. The test substances were titrated in DMSO and transferred to DMEM (PanEco, S420p) medium supplemented with 2% FBS, added to the cells and incubated at 37° C. for 72 hours; viability of the cells was then assessed using Alamar Blue dye (ThermoFisher, # DAL1100). CC50 was determined similarly to IC50.
(§8) The ratio between CC50 for HepG2 cell line and IC50 for H1975 cell line is the therapeutic index (TI): […]

[5] = General cytotoxicity on HepG2 cells; format: cell-based; conditions: human; general cytotoxicity, HepG2 cells, 72 hours, average of several tests
Procedure: as §7, §8

[6] = antiproliferative test, Table 15, read-out: IC50 H1975 (DM)
[7] = average values obtained in several tests, Table 16, read-out: H1975 (DM) IC50

Row | Compound | IC50 (WT EGFR (Wild-Type EGFR)) [nM] | IC50 [1] [nM] | SI, IC50(WT)/IC50(DM) [1] | IC50 [2] [µM] | Stability in blood plasma, % [3] [%] | IC50 [4, 6] [nM] | SI IC50(A549)/IC50(DM) [4] | IC50 [4, 7] [nM] | TI, CC50/IC50 (HepG2 cells) | CC50 at 72 h [5] [µM]
1 | C=CC(=O)Nc1cc(Nc2nccc(C(=O)c3ccc(N4CCC(N)CC4)cc3OC)n2)c(OC)cc1N(C)CCN(C)C [EGFR_3365-126] | 19.8 | 1.86 | 10.62 | – | – | – | – | – | – | –
2 | C=CC(=O)Nc1cc(Nc2nccc(C(=O)c3ccc(N4CCCC4=O)cc3)n2)c(OC)cc1N(C)CCN(C)C [EGFR_3365_91] | 107 | 4.55 | 23.60 | 31.6 | 95.4 | > 200 | <158 | – | – | –
3 | C=CC(=O)Nc1cc(Nc2nccc(C(=O)c3ccc(OCCOC)cc3)n2)c(OC)cc1N(C)CCN(C)C [EGFR_3365_92, N-(2-((2-(dimethylamino)ethyl)(methyl)amino)-4-methoxy-5-((4-(4-(2-methoxyethoxy)benzoyl)pyrimidin-2-yl)amino)phenyl) acrylamide] | 133 | 7.57 | 17.56 | 22.9 | 99.1 | 35.1 | 652 | – | – | –
4 | C=CC(=O)Nc1cc(Nc2nccc(C(=O)c3ccc(N4CCC(C#N)CC4)cc3)n2)c(OC)cc1N(C)CCN(C)C [EGFR_3365_97, N-(5-((4-(4-(4-cyanopiperidin-1-yl)benzoyl)pyrimidin-2-yl)amino)-2-((2-(dimethylamino)ethyl)(methyl)amino)-4-methoxyphenyl)acrylamide] | 84.2 | 2.3 | 36.55 | 13.8 | 99.3 | 22.9 | 601 | 22.9 | 943 | 21.6
5 | C=CC(=O)Nc1cc(Nc2nccc(C(=O)c3ccc(N4CCC(OC)CC4)cc3)n2)c(OC)cc1N(C)CCN(C)C [EGFR_3365_98, N-(2-((2-(dimethylamino)ethyl)(methyl)amino)-4-methoxy-5-((4-(4-(4-methoxypiperidin-1-yl)benzoyl)pyrimidin-2-yl)amino)phenyl)acrylamide] | 83.2 | 1.86 | 44.62 | 14.5 | 96.1 | 13.7 | 1065 | 13.7 | 1770 | 24.2
6 | C=CC(=O)Nc1cc(Nc2nccc(C(=O)c3ccc(N4CCC[C@H](OC)C4)cc3)n2)c(OC)cc1N(C)CCN(C)C [EGFR_3365_110, (S)-N-(2-((2-(dimethylamino)ethyl)(methyl)amino)-4-methoxy-5-((4-(4-(3-methoxypiperidin-1-yl)benzoyl)pyrimidin-2-yl)amino)phenyl)acrylamide] | 97.7 | 2.32 | 42.20 | 9.51 | 95.7 | 21.7 | 439 | 21.7 | 855 | 18.5
7 | C=CC(=O)Nc1cc(Nc2nccc(C(=O)c3ccc(N4CCC[C@@H](OC)C4)cc3)n2)c(OC)cc1N(C)CCN(C)C [EGFR_3365_111, (R)-N-(2-((2-(dimethylamino)ethyl)(methyl)amino)-4-methoxy-5-((4-(4-(3-methoxypiperidin-1-yl)benzoyl)pyrimidin-2-yl)amino)phenyl)acrylamide] | 186 | 2.33 | 79.88 | 11.2 | 100.0 | 36.6 | 307 | 36.6 | 742 | 27.1
8 | C=CC(=O)Nc1cc(Nc2nccc(C(=O)c3ccc(OC4CC4)cc3)n2)c(OC)cc1N(C)CCN(C)C [EGFR_3365_116, N-(5-((4-(4-cyclopropoxybenzoyl)pyrimidin-2-yl)amino)-2-((2-(dimethylamino)ethyl)(methyl)amino)-4-methoxyphenyl)acrylamide] | 35 | 1.75 | 19.99 | 11.8 | 86.0 | 29.5 | 400 | 29.5 | 749 | 22.1
9 | C=CC(=O)Nc1cc(Nc2nccc(C(=O)c3ccc(N4CCC(N(C)C)CC4)cc3OC)n2)c(OC)cc1N(C)CCN(C)C [EGFR_3365_127, N-(2-((2-(dimethylamino)ethyl)(methyl)amino)-5-((4-(4-(4-(dimethylamino)piperidin-1-yl)-2-methoxybenzoyl)pyrimidin-2-yl)amino)-4-methoxyphenyl)acrylamide] | 24.5 | 2.96 | 8.29 | > 10 | – | 8.45 | >166** | – | – | –
